Article PMC5769417, “Single- and Multiple-Dose Trials to Determine the Pharmacokinetics, Safety, Tolerability, and Sex Effect of Oral Ginsenoside Compound K in Healthy Chinese Volunteers” (Frontiers in Pharmacology, 2018)

What was measured:
[1] = Single-dose trial, plasma pharmacokinetics; format: in vivo, human; conditions: single-dose trial, fasting
Experimental: Single-dose pharmacokinetics: The single-dose trial was performed first. […] Drinking before and after medication was prohibited for 2 h, but the amount and time of drinking were not strictly controlled at other times. All subjects had standard lunch and dinner (unified light diet) after medication 4 and 10 h. Single-dose pharmacokinetics: […] We preserved 8 ml specimens into 10 ml centrifuge tubes and stored at −70°C for PK assessment. All samples were preserved at −70°C and analyzed with a LC-MS/MS (API 4000 LC-MS/MS, ABI Company, Foster City, CA, USA) at the Institute of Clinical Pharmacology, Central South University (Changsha, China). […] An aqueous solution of a stable internal standard (IS for CK: digoxin, Shijiaoke Biological Technology Co. Ltd., Beijing, China; IS for PPD: coumarin, Sigma-Aldrich, St. Louis, USA) and 1 M phosphate buffer were added to 0.5 ml of thawed sample, and analytical standards and quality control (QC) samples were prepared in the same matrix. All samples were treated with 2 ml of methyl tert-butyl ether (MTBE, CNW technologies GmbH, Duesseldorf, Germany) to precipitate the bulk of plasma proteins. After mechanical shock by mixing for 10 min and a subsequent centrifugation (4,000 rpm, 4°C, 10 min), 1.4 ml of the supernatant was transferred and blow-dried with nitrogen in a water bath at 40°C. Lastly, the residue was dissolved in 100 μl of mobile phase and then was subjected to a mechanical shock by mixing, and centrifuged. The supernatant was subsequently injected into the column for analysis. […] Accuracy and precision of the assay were determined by evaluating the performance of the assay controls. Over the quantification range, the accuracy of the QC samples varied from 85 to 115% and the intra- and inter-assay imprecision was <15%. PK parameters were derived according to noncompartmental analysis and actual elapsed time from dosing by WinNonlin version 6.1 (Pharsight Corporation, Mountain View, CA, USA). […] The area under the curve (AUC) from time zero to the last time point (AUClast) and the AUC extrapolated to infinity (AUCinf) were calculated using the linear trapezoidal rule. The slope (elimination rate constant, K) of the terminal phase of the plasma concentration-time profile was determined, using a weighting factor of 1, by the method of least squares (log-linear regression of at least three data points). The t1/2 was estimated as (ln2)/K. […] The apparent volume of distribution (V/F) was equal to (CL/F)/K. The mean residence time (MRT) was calculated as the area under the first moments curve (AUMC) divided by AUC. The dose-normalized PK parameters e.g., Cmax/D and AUClast/D, were obtained by dividing each PK result by the administered dose. The cumulative excretion rate was calculated as the amount of unchanged drug in the urine over a time interval divided by the dose and was expressed as thousand points (‰).

[2] = Multiple-dose trial, plasma pharmacokinetics; format: in vivo, human
Experimental: Multiple-dose pharmacokinetics: […] Multiple-dose pharmacokinetics: […] All samples were preserved at −70°C and analyzed with a LC-MS/MS (API 4000 LC-MS/MS, ABI Company, Foster City, CA, USA) at the Institute of Clinical Pharmacology, Central South University (Changsha, China). […] An aqueous solution of a stable internal standard (IS for CK: digoxin, Shijiaoke Biological Technology Co. Ltd., Beijing, China; IS for PPD: coumarin, Sigma-Aldrich, St. Louis, USA) and 1 M phosphate buffer were added to 0.5 ml of thawed sample, and analytical standards and quality control (QC) samples were prepared in the same matrix. All samples were treated with 2 ml of methyl tert-butyl ether (MTBE, CNW technologies GmbH, Duesseldorf, Germany) to precipitate the bulk of plasma proteins. After mechanical shock by mixing for 10 min and a subsequent centrifugation (4,000 rpm, 4°C, 10 min), 1.4 ml of the supernatant was transferred and blow-dried with nitrogen in a water bath at 40°C. Lastly, the residue was dissolved in 100 μl of mobile phase and then was subjected to a mechanical shock by mixing, and centrifuged. The supernatant was subsequently injected into the column for analysis. […] Accuracy and precision of the assay were determined by evaluating the performance of the assay controls. Over the quantification range, the accuracy of the QC samples varied from 85 to 115% and the intra- and inter-assay imprecision was <15%. […] The area under the curve (AUC) from time zero to the last time point (AUClast) and the AUC extrapolated to infinity (AUCinf) were calculated using the linear trapezoidal rule. The slope (elimination rate constant, K) of the terminal phase of the plasma concentration-time profile was determined, using a weighting factor of 1, by the method of least squares (log-linear regression of at least three data points). The t1/2 was estimated as (ln2)/K. […] The apparent volume of distribution (V/F) was equal to (CL/F)/K. The mean residence time (MRT) was calculated as the area under the first moments curve (AUMC) divided by AUC. The dose-normalized PK parameters e.g., Cmax/D and AUClast/D, were obtained by dividing each PK result by the administered dose. The cumulative excretion rate was calculated as the amount of unchanged drug in the urine over a time interval divided by the dose and was expressed as thousand points (‰). On day 15 in the multiple-dose trial, the PK parameters, such as t1/2, CL/F, and V/F at steady state were calculated using the same method as that used for the single-dose trial. In addition, the Tmax at steady state (Tmax,ss), Cmax at steady state (Cmax,ss), and Cmin,ss were obtained from experimental observation after the steady state during the multiple-dose trial. […] The average steady-state drug concentration (Cavg) is calculated as AUCτ/τ, and the fluctuation ratio was calculated as (Cmax,ss − Cmin,ss)/Cavg. The accumulation index was calculated using dosing interval and elimination rate constant as in the following equation: 1/(1 − e^−Kτ).

[3] = 100 mg oral after breakfast, Day 1
[4] = 100 mg qd oral after breakfast, Day 15
[5] = 200 mg oral after breakfast, Day 1
[6] = 200 mg qd oral after breakfast, Day 15
[7] = 400 mg oral after breakfast, Day 1
[8] = 400 mg qd oral after breakfast, Day 15

In the case of `CC(C)=CCC[C@](C)(O)[C@H]1CC[C@]2(C)[C@@H]1[C@H](O)C[C@@H]1[C@@]3(C)CC[C@H](O)C(C)(C)[C@@H]3CC[C@]12C` [20(S)-PPD, 20(S)-protopanaxadiol], the AUClast ([1]; 25 mg oral) is reported as 32.4 ± 26.2 ng·h/mL, the Cmax ([1]; 25 mg oral) is reported as 1.6 ± 1.2 ng/mL and the “Tmax, median (range)” value ([1]; 25 mg oral) is reported as 12.0 (8.0–24.0) h. The AUClast ([1]; 50 mg oral) was 43.9 ± 12.0 ng·h/mL, the Cmax ([1]; 50 mg oral) was 1.8 ± 0.6 ng/mL and the “Tmax, median (range)” value ([1]; 50 mg oral) was 24.0 (12.0–24.0) h. The AUClast ([1]; 100 mg oral) was 167.6 ± 125.0 ng·h/mL, the Cmax ([1]; 100 mg oral) was 6.3 ± 4.2 ng/mL and the “Tmax, median (range)” value ([1]; 100 mg oral) was 24.0 (12.0–36.0) h. For the same compound, the AUClast ([1]; 200 mg oral) was 117.8 ± 94.9 ng·h/mL, the Cmax ([1]; 200 mg oral) was 3.5 ± 2.7 ng/mL and the “Tmax, median (range)” value ([1]; 200 mg oral) was 24.0 (6.0–36.0) h. For the same compound, the AUClast ([1]; 400 mg oral) was 157.1 ± 174.6 ng·h/mL, the Cmax ([1]; 400 mg oral) was 4.8 ± 4.3 ng/mL and the “Tmax, median (range)” value ([1]; 400 mg oral) was 24.0 (5.0–48.0) h. The AUClast ([1]; 600 mg oral) was 269.8 ± 251.4 ng·h/mL, the Cmax ([1]; 600 mg oral) was 9.5 ± 9.8 ng/mL and the “Tmax, median (range)” value ([1]; 600 mg oral) was 36.0 (24.0–72.0) h. For the same compound, the AUClast ([1]; 800 mg oral) was 179.1 ± 171.0 ng·h/mL, the Cmax ([1]; 800 mg oral) was 5.1 ± 5.3 ng/mL and the “Tmax, median (range)” value ([1]; 800 mg oral) was 30.0 (3.0–72.0) h. For the same compound, the AUClast [2, 3] was 60.6 ± 44.9 ng·h/mL, the Cmax [2, 3] was 1.8 ± 1.1 ng/mL and the “Tmax, median (range)” value [2, 3] was 24.0 (24.0–36.0) h. For the same compound, the AUClast [2, 4] was 154.5 ± 81.8 ng·h/mL, the Cmax [2, 4] was 5.0 ± 2.5 ng/mL and the “Tmax, median (range)” value [2, 4] was 5.5 (0.3–24.0) h. The AUClast [2, 5] was 54.1 ± 58.8 ng·h/mL, the Cmax [2, 5] was 2.3 ± 3.4 ng/mL and the “Tmax, median (range)” value [2, 5] was 7.0 (4.0-48.0) h. The AUClast [2, 6] was 170.9 ± 191.0 ng·h/mL, the Cmax [2, 6] was 5.7 ± 6.1 ng/mL and the “Tmax, median (range)” value [2, 6] was 6.0 (0.3–24.0) h. The AUClast [2, 7] was 133.1 ± 127.6 ng·h/mL, the Cmax [2, 7] was 4.3 ± 3.6 ng/mL and the “Tmax, median (range)” value [2, 7] was 16.0 (3.0–36.0) h. The AUClast [2, 8] was 463.1 ± 512.3 ng·h/mL, the Cmax [2, 8] was 11.0 ± 10.2 ng/mL and the “Tmax, median (range)” value [2, 8] was 5.5 (0.5–8.0) h. The “concentration of metabolite relative to the parent drug” value ([2]; Day 1, 100–400 mg CK) was 0.08–0.16%.
